Measurements from PubChem BioAssay (NCI).
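A five-concentration, 48-hour dose response in 96-well plates underlies each endpoint, interpolated linearly between surrounding concentrations. TGI: concentration producing complete growth inhibition.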

Assays:
Experiment in all cases: growth of human tumour cells (NCI), 48 h
[1] = tested on: SNB-19 CNS
[2] = tested on: IGROV1 ovarian
[3] = tested on: OVCAR-4 ovarian
[4] = tested on: HOP-62 NSCLC
[5] = tested on: HCT-116 colon
[6] = tested on: K-562 leukemia
[7] = tested on: MDA-MB-435
[8] = tested on: MCF7 breast
[9] = tested on: SF-295 CNS
[10] = tested on: HT29 colon
[11] = tested on: DU-145 prostate
[12] = tested on: TK-10 renal
[13] = tested on: RXF 393 renal
[14] = tested on: NCI-H226 lung
[15] = tested on: SK-MEL-28 melanoma
[16] = tested on: NCI/ADR-RES ovarian
[17] = tested on: OVCAR-5 ovarian
[18] = tested on: CAKI-1 renal
[19] = tested on: CCRF-CEM leukemia
[20] = tested on: SK-MEL-2 melanoma
[21] = tested on: PC-3 prostate
[22] = tested on: ACHN renal
[23] = tested on: 786-0 renal
[24] = tested on: HS 578T breast
[25] = tested on: M14 melanoma
[26] = tested on: KM12 colon
[27] = tested on: LOX IMVI melanoma
[28] = tested on: RPMI-8226 leukemia
[29] = tested on: EKVX NSCLC
[30] = tested on: SW-620 colon
[31] = tested on: SNB-75 CNS
[32] = tested on: UACC-257 melanoma
[33] = tested on: SK-OV-3 ovarian
[34] = tested on: HOP-92 NSCLC
[35] = tested on: A498 renal
[36] = tested on: MOLT-4 leukemia
[37] = tested on: HCT-15 colon
[38] = tested on: SK-MEL-5 melanoma
[39] = tested on: SF-268 CNS
[40] = tested on: OVCAR-8 ovarian
[41] = tested on: SN12C renal
[42] = tested on: NCI-H460 lung
[43] = tested on: MALME-3M melanoma
[44] = tested on: COLO 205 colon
[45] = tested on: UACC-62 melanoma
[46] = tested on: OVCAR-3 ovarian
[47] = tested on: UO-31 renal
[48] = tested on: SR leukemia
[49] = tested on: NCI-H522 lung
[50] = tested on: A549 NSCLC
[51] = tested on: NCI-H23 lung
[52] = tested on: U251 CNS
[53] = tested on: MDA-N
[54] = tested on: HL-60(TB) leukemia
[55] = tested on: MDA-MB-231 breast
[56] = tested on: SF-539 CNS

Measured: TGI

CCOC(=O)C1(C(=O)OCC)C[C@H](C)[C@](C)(O)C1
> 100 µM: all assays above
